Measured values: PubChem BioAssay (NCI)
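Five compound concentrations were applied to cells in 96-well plates for 48 hours; endpoints were derived by simple linear interpolation of the resulting dose-response curve. At the TGI there is no net growth.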

Key:
Assay in all cases: DTP human tumour cell line panel, 48 h
786-0 renal = system: 786-0 renal
A498 renal = system: A498 renal
A549 NSCLC = system: A549 NSCLC
ACHN renal = system: ACHN renal
CAKI-1 renal = system: CAKI-1 renal
CCRF-CEM leukemia = system: CCRF-CEM leukemia
COLO 205 colon = system: COLO 205 colon
DLD-1 colon = system: DLD-1 colon
DMS 114 small cell lung = system: DMS 114 small cell lung
DMS 273 small cell lung = system: DMS 273 small cell lung
EKVX NSCLC = system: EKVX NSCLC
HCC-2998 colon = system: HCC-2998 colon
HCT-116 colon = system: HCT-116 colon
HCT-15 colon = system: HCT-15 colon
HOP-18 NSCLC = system: HOP-18 NSCLC
HOP-62 NSCLC = system: HOP-62 NSCLC
HT29 colon = system: HT29 colon
IGROV1 ovarian = system: IGROV1 ovarian
K-562 leukemia = system: K-562 leukemia
KM20L2 colon = system: KM20L2 colon
LOX IMVI melanoma = system: LOX IMVI melanoma
M14 melanoma = system: M14 melanoma
M19-MEL melanoma = system: M19-MEL melanoma
MALME-3M melanoma = system: MALME-3M melanoma
NCI-H226 lung = system: NCI-H226 lung
NCI-H23 lung = system: NCI-H23 lung
NCI-H460 lung = system: NCI-H460 lung
OVCAR-3 ovarian = system: OVCAR-3 ovarian
OVCAR-4 ovarian = system: OVCAR-4 ovarian
OVCAR-5 ovarian = system: OVCAR-5 ovarian
OVCAR-8 ovarian = system: OVCAR-8 ovarian
RPMI-8226 leukemia = system: RPMI-8226 leukemia
RXF-631 renal = system: RXF-631 renal
SF-268 CNS = system: SF-268 CNS
SF-295 CNS = system: SF-295 CNS
SF-539 CNS = system: SF-539 CNS
SK-MEL-2 melanoma = system: SK-MEL-2 melanoma
SK-MEL-28 melanoma = system: SK-MEL-28 melanoma
SK-MEL-5 melanoma = system: SK-MEL-5 melanoma
SK-OV-3 ovarian = system: SK-OV-3 ovarian
SN12C renal = system: SN12C renal
SNB-19 CNS = system: SNB-19 CNS
SNB-75 CNS = system: SNB-75 CNS
SNB-78 CNS = system: SNB-78 CNS
SW-620 colon = system: SW-620 colon
TK-10 renal = system: TK-10 renal
U251 CNS = system: U251 CNS
UACC-257 melanoma = system: UACC-257 melanoma
UACC-62 melanoma = system: UACC-62 melanoma
UO-31 renal = system: UO-31 renal
KM12 colon = system: KM12 colon
LXFL 529 NSCLC = system: LXFL 529 NSCLC
MOLT-4 leukemia = system: MOLT-4 leukemia
NCI-H522 lung = system: NCI-H522 lung
RXF 393 renal = system: RXF 393 renal
XF 498 CNS = system: XF 498 CNS

Measured: TGI

Cc1ccc(C(O)(c2ccc(C)cc2)c2ccccn2)cc1
not listed: KM12 colon | LXFL 529 NSCLC | MOLT-4 leukemia | NCI-H522 lung | RXF 393 renal | XF 498 CNS
> 100 µM: all other assays above

Cc1ccc(-c2cc(=O)c3cc(C)c(C)c(C(=O)O)c3o2)cc1N
not listed: A498 renal | DMS 273 small cell lung | HCC-2998 colon | HOP-62 NSCLC
> 100 µM: all other assays above
